# Source: US12492173B2, “Herbicidal substituted N-tetrazolyl aryl carboxamides” (Bayer Aktiengesellschaft, priority 2019, dated 2025)
# Test system: Viola tricolor
# Assay: Pre-emergence herbicidal action, VIOTR
# Assay type: in vivo
# Parameters: key to Herbicidal action against VIOTR: % activity: 100 = plants have died, 0 = like control plants
# Details: comparative experiment, 20 g of a.i./ha
# Method in brief: (§1)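 Sown pots (sandy loam) sprayed pre-emergence → greenhouse → visual rating at 3 weeks; % activity vs untreated control, 100% = dead.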
row,SMILES,Herbicidal action against VIOTR
1,Cn1nnnc1NC(=O)c1ccc(C(F)(F)F)c(C[S+](C)[O-])c1Br (centres unmarked) [Example 1-381],90

# Same assay, conditions: dosage 320 g/ha, scored visually after 3 weeks vs untreated controls (100% = plants have died)
row,SMILES,herbicidal activity VIOTR [%]
1,COc1c(C(=O)Nc2nnnn2C)ccc(C(F)(F)F)c1CSC [Example 1-134],100
2,CCn1nnnc1NC(=O)c1ccc(C(F)(F)F)c(CSC)c1Br [Example 2-380],100
3,Cn1nnnc1NC(=O)c1ccc(C(F)(F)F)c(C[S+](C)[O-])c1Br (centres unmarked) [Example 1-381],100
4,Cn1nnnc1NC(=O)c1ccc(C(F)(F)F)c(C[S+](C)[O-])c1Cl (racemic) [Example 1-297],100
5,CCSCc1c(C(F)(F)F)ccc(C(=O)Nc2nnnn2CC)c1Br [Example 2-383],100
6,CSCc1c(C(F)(F)F)ccc(C(=O)Nc2nnnn2C)c1SC [Example 1-161],100
7,Cc1c(C(=O)Nc2nnnn2C)ccc(C(F)(F)F)c1CS(C)(=O)=O [Example 1-85],100

# Test system: Pharbitis purpurea
# Assay: Pre-emergence herbicidal action, PHBPU
# Assay type: in vivo
# Details: comparative experiment, 20 g of a.i./ha
# Method in brief: as §1
row,SMILES,Herbicidal action against PHBPU
1,COc1c(C(=O)Nc2nnnn2C)ccc(C(F)(F)F)c1CSC [Example 1-134],20

# Same assay, conditions: dosage 320 g/ha, scored visually after 3 weeks vs untreated controls (100% = plants have died)
row,SMILES,herbicidal activity PHBPU [%]
1,COc1c(C(=O)Nc2nnnn2C)ccc(C(F)(F)F)c1CSC [Example 1-134],80
2,CCn1nnnc1NC(=O)c1ccc(C(F)(F)F)c(CSC)c1Br [Example 2-380],80
3,Cn1nnnc1NC(=O)c1ccc(C(F)(F)F)c(C[S+](C)[O-])c1Br (centres unmarked) [Example 1-381],80
4,Cn1nnnc1NC(=O)c1ccc(C(F)(F)F)c(C[S+](C)[O-])c1Cl (racemic) [Example 1-297],90

# Test system: Lolium multiflorum
# Assay: Post-emergence herbicidal action, LOLMU
# Assay type: in vivo
# Parameters: key: % herbicidal action: 100 = plants died, 0 = like control
# Details: Dosage 80 g/ha
# Method in brief: (§2)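 Sandy loam, greenhouse; one-leaf stage (2–3 wk after sowing); foliar spray of WP or EC, 600–800 l/ha water + 0.2% wetter; visual rating at ~3 wk vs untreated, % effect.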
row,SMILES,herbicidal action LOLMU
1,Cc1c(C(=O)Nc2nnnn2C)ccc(C(F)(F)F)c1CS(C)(=O)=O [Example 1-85],80

# Same assay, conditions: post-emergence, dosage 80 g/ha
row,SMILES,herbicidal action LOLMU [%]
1,CCn1nnnc1NC(=O)c1ccc(C(F)(F)F)c(CSC)c1Br [Example 2-380],80
2,Cn1nnnc1NC(=O)c1ccc(C(F)(F)F)c(C[S+](C)[O-])c1Br (centres unmarked) [Example 1-381],80
3,Cn1nnnc1NC(=O)c1ccc(C(F)(F)F)c(C[S+](C)[O-])c1Cl (racemic) [Example 1-297],100
4,CCSCc1c(C(F)(F)F)ccc(C(=O)Nc2nnnn2CC)c1Br [Example 2-383],80

# Test system: Lolium multiflorum
# Assay: Pre-emergence herbicidal action, LOLMU
# Assay type: in vivo
# Details: comparative experiment, 20 g of a.i./ha
# Method in brief: as §1
row,SMILES,Herbicidal action against LOLMU
1,Cn1nnnc1NC(=O)c1ccc(C(F)(F)F)c(C[S+](C)[O-])c1Cl (racemic) [Example 1-297],30

# Same assay, conditions: dosage 320 g/ha, scored visually after 3 weeks vs untreated controls (100% = plants have died)
row,SMILES,herbicidal activity LOLMU [%]
1,Cn1nnnc1NC(=O)c1ccc(C(F)(F)F)c(C[S+](C)[O-])c1Cl (racemic) [Example 1-297],100
2,CCSCc1c(C(F)(F)F)ccc(C(=O)Nc2nnnn2CC)c1Br [Example 2-383],100
3,CSCc1c(C(F)(F)F)ccc(C(=O)Nc2nnnn2C)c1SC [Example 1-161],90

# Test system: Viola tricolor
# Assay: Post-emergence herbicidal action, VIOTR
# Assay type: in vivo
# Parameters: key: % herbicidal action vs untreated; 100 = plants died, 0 = like control
# Details: Dosage 80 g/ha
# Method in brief: as §2
row,SMILES,herbicidal action VIOTR
1,COc1c(C(=O)Nc2nnnn2C)ccc(C(F)(F)F)c1CSC [Example 1-134],100
2,CSCc1c(C(F)(F)F)ccc(C(=O)Nc2nnnn2C)c1SC [Example 1-161],100
3,Cc1c(C(=O)Nc2nnnn2C)ccc(C(F)(F)F)c1CS(C)(=O)=O [Example 1-85],100

# Same assay, conditions: comparative experiment, post-emergence, 5 g of a.i./ha
row,SMILES,Herbicidal action against VIOTR
1,COc1c(C(=O)Nc2nnnn2C)ccc(C(F)(F)F)c1CSC [Example 1-134],100

# Same assay, conditions: post-emergence, dosage 80 g/ha
SMILES,Herbicidal action against VIOTR,herbicidal action VIOTR [%]
COc1c(C(=O)Nc2nnnn2C)ccc(C(F)(F)F)c1CSC [Example 1-134],100,
CCn1nnnc1NC(=O)c1ccc(C(F)(F)F)c(CSC)c1Br [Example 2-380],,100
Cn1nnnc1NC(=O)c1ccc(C(F)(F)F)c(C[S+](C)[O-])c1Br (centres unmarked) [Example 1-381],,100
Cn1nnnc1NC(=O)c1ccc(C(F)(F)F)c(C[S+](C)[O-])c1Cl (racemic) [Example 1-297],,100
CCSCc1c(C(F)(F)F)ccc(C(=O)Nc2nnnn2CC)c1Br [Example 2-383],,100

# Test system: Cyperus esculentus
# Assay: Post-emergence herbicidal action, CYPES
# Assay type: in vivo
# Parameters: key: % herbicidal action vs untreated; 100 = plants died, 0 = like control
# Details: Dosage 80 g/ha
# Method in brief: as §2
row,SMILES,herbicidal action CYPES
1,CSCc1c(C(F)(F)F)ccc(C(=O)Nc2nnnn2C)c1SC [Example 1-161],80
2,Cc1c(C(=O)Nc2nnnn2C)ccc(C(F)(F)F)c1CS(C)(=O)=O [Example 1-85],80

# Same assay, conditions: comparative experiment, post-emergence, 5 g of a.i./ha
row,SMILES,Herbicidal action against CYPES
1,Cn1nnnc1NC(=O)c1ccc(C(F)(F)F)c(C[S+](C)[O-])c1Cl (racemic) [Example 1-297],60

# Same assay, conditions: post-emergence, dosage 80 g/ha
row,SMILES,herbicidal action CYPES [%]
1,Cn1nnnc1NC(=O)c1ccc(C(F)(F)F)c(C[S+](C)[O-])c1Br (centres unmarked) [Example 1-381],90
2,Cn1nnnc1NC(=O)c1ccc(C(F)(F)F)c(C[S+](C)[O-])c1Cl (racemic) [Example 1-297],80

# Test system: Cyperus esculentus
# Assay: Pre-emergence herbicidal action, CYPES
# Assay type: in vivo
# Parameters: key: % activity: 100 = plants have died, 0 = like control plants
# Details: comparative experiment, 20 g of a.i./ha
# Method in brief: as §1
row,SMILES,Herbicidal action against CYPES
1,COc1c(C(=O)Nc2nnnn2C)ccc(C(F)(F)F)c1CSC [Example 1-134],50
2,Cn1nnnc1NC(=O)c1ccc(C(F)(F)F)c(C[S+](C)[O-])c1Cl (racemic) [Example 1-297],100
